Source: patent publication US7601716B2, “Pyridopyrazines and derivatives thereof as ALK and c-Met inhibitors” (Cephalon, Inc., priority 2006, dated 2009)

Key:
[1] = biological target: T1, c-Met (cytoplasmic domain) (Homo sapiens, UniProt P08581); experiment: c-Met Kinase Assay (ELISA/TRF, PLC-γ substrate); format: biochemical; details: 3 μM ATP (Km level); read-out: c-Met Kinase Inhibition (IC50)
T1 construct: Reactions were initiated with 30 ng/mL c-Met (cytoplasmic domain, Invitrogen Corporation #PV3143); purchased Invitrogen Corporation PV3143
In short: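 c-Met cytoplasmic domain (30 ng/mL) phosphorylates plate-coated GST–PLC-γ for 15 min at 37 °C. Phosphotyrosine detected with Eu-labeled PT66 antibody by time-resolved fluorescence. IC50 from variable-slope sigmoidal fit of % inhibition vs log concentration.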

[2] = biological target: baculovirus-expressed ALK (Homo sapiens, UniProt Q9UM73); experiment: ALK Kinase Assay (ELISA/TRF, PLC-γ substrate); format: biochemical; details: read-out: ALK Kinase Inhibition (IC50); further: 1 µM ATP (Km level)
In short: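 GST-PLC-γ coat 10 μg/mL/TBS; 30 ng/ml ALK, 37° C, 15 min; Eu-PT66 anti-pTyr 1 h 37° C, enhancement, TRF. IC50: % inhib vs log10[cpd], variable-slope sigmoid.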

T1 sequence (P08581 956-1390 limits assumed): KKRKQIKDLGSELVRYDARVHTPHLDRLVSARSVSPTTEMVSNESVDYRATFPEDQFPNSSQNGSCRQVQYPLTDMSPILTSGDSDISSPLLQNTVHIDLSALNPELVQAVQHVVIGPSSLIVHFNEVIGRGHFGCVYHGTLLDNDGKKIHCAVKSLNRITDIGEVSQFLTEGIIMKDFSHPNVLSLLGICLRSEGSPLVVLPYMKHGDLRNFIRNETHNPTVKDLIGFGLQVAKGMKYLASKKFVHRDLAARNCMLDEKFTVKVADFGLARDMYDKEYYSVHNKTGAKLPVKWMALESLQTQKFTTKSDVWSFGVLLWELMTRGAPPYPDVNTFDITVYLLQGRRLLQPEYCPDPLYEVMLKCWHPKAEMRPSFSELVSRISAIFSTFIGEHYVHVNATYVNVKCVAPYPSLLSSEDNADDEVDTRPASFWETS
baculovirus-expressed ALK, sequence (Q9UM73 19-1620): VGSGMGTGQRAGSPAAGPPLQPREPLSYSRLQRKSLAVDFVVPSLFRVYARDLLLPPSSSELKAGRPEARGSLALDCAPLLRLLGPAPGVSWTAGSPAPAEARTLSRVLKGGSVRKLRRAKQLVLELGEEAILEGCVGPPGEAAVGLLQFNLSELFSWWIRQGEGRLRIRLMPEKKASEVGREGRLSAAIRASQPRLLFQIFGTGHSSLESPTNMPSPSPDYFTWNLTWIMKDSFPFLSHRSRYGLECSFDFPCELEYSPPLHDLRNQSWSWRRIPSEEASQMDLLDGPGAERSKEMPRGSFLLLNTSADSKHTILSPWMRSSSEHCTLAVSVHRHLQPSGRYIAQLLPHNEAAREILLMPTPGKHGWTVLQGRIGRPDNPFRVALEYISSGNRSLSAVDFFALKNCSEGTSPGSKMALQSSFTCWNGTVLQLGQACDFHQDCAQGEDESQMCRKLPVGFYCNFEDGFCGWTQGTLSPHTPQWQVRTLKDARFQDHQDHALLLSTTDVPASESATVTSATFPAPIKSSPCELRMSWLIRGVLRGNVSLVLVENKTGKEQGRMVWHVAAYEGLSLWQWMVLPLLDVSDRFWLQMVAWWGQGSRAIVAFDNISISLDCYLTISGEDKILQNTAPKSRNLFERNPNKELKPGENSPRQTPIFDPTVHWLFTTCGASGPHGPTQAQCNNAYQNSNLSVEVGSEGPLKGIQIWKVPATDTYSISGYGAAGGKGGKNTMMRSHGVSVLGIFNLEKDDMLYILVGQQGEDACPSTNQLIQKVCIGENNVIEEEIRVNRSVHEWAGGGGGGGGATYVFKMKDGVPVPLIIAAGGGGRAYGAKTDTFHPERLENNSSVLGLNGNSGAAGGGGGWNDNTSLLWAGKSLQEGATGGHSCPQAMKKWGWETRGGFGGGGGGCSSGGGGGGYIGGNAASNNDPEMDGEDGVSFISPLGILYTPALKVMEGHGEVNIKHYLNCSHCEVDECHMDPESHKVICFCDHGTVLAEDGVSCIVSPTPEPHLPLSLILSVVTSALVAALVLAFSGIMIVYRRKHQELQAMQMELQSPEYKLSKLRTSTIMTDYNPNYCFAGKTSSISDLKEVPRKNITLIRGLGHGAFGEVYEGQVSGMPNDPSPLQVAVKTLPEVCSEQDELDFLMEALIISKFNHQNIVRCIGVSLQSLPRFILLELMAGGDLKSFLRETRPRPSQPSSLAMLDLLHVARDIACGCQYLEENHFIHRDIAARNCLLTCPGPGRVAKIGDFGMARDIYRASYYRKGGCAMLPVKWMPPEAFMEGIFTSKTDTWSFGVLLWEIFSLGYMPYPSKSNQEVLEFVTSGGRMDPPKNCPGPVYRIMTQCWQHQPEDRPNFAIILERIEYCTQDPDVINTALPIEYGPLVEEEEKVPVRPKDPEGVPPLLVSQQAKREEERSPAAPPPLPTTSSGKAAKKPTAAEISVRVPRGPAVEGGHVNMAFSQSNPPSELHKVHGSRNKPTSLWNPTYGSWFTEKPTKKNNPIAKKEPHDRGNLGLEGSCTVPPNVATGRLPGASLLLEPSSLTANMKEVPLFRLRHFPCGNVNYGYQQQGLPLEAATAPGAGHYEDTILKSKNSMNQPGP

Row | Structure (SMILES) | IC50 [1] [µM] | IC50 [2] [µM] | melting point
1 | CN1CCN(C(=O)c2ccc(-c3cnc4c(c3)N(Cc3cc(F)ccc3F)CC(C)(C)N4)cc2)CC1 [Example 97, {4-[1-(2,5-Difluorobenzyl)-3,3-dimethyl-1,2,3,4-tetrahydropyrido[2,3-b]pyrazin-7-yl]phenyl}-(4-methylpiperazin-1-yl)methanone] | > 100 | 10 to 100 | 191 to 192 °C
2 | CC1(C)Nc2ncc(I)cc2NC1=O [Example 91, 7-Iodo-3,3-dimethyl-3,4-dihydro-1H-pyrido[2,3-b]pyrazin-2-one] | 10 to 100 | > 100 | > 300 °C
3 | O=S(=O)(c1cc(F)ccc1F)N1CCNc2ncc(I)cc21 [Example 121, 1-(2,5-Difluorobenzenesulfonyl)-7-iodo-1,2,3,4-tetrahydropyrido[2,3-b]pyrazine] | 10 to 100 | 1 to 10 | 187 to 188 °C
4 | O=C(O)c1cncc(-c2cnc3c(c2)N(Cc2cc(F)ccc2F)CCN3)c1 [Example 74, 5-[1-(2,5-Difluorobenzyl)-1,2,3,4-tetrahydropyrido[2,3-b]pyrazin-7-yl]-nicotinic acid] | 10 to 100 | 10 to 100 | 255 to 260 °C
5 | CCOC(=O)c1ccc(-c2cnc3c(c2)N(Cc2c(Cl)cccc2Cl)C(=O)CN3)cc1 [Example 139, 4-[1-(2,6-Dichlorobenzyl)-2-oxo-1,2,3,4-tetrahydropyrido[2,3-b]pyrazin-7-yl]benzoic acid ethyl ester] | 10 to 100 | 10 to 100 | 226 °C
6 | CN1CCN(C(=O)c2ccc(-c3cnc4c(c3)N(C(=O)c3cc(F)ccc3F)CCN4)cc2)CC1 [Example 88, (2,5-Difluorophenyl)-{7-[4-(4-methylpiperazine-1-carbonyl)phenyl]-3,4-dihydro-2H-pyrido[2,3-b]pyrazin-1-yl}-methanone] | 1 to 10 | 10 to 100 | 201 to 203 °C
7 | O=C1CNc2ncc(I)cc2N1Cc1cccc(F)c1C(F)(F)F [Example 178, 1-[3-Fluoro-2-(trifluoromethyl)benzyl]-7-iodo-3,4-dihydro-1H-pyrido[2,3-b]pyrazin-2-one] | 10 to 100 | > 100 | > 200 °C
8 | O=C1CNc2ncc(I)cc2N1 [Example 2, 7-Iodo-3,4-dihydro-1H-pyrido[2,3-b]pyrazin-2-one] | > 100 | > 100 | 81 °C
9 | N#Cc1cnc2c(c1)N(Cc1cc(Cl)ccc1Cl)CCN2 [Example 127, 1-(2,5-Dichlorobenzyl)-1,2,3,4-tetrahydropyrido[2,3-b]pyrazine-7-carbonitrile] | > 100 | 1 to 10 | 221 to 222 °C
10 | FC(F)(F)c1ccc(CN2CCNc3ncc(I)cc32)o1 [Example 291, 7-Iodo-1-[5-(trifluoromethyl)furan-2-ylmethyl]-1,2,3,4-tetrahydropyrido[2,3-b]pyrazine] | > 100 | 10 to 100 | 153 to 154 °C
11 | O=C(NCCN1CCCC1)c1ccc(-c2cnc3c(c2)N(Cc2c(Cl)cccc2Cl)C(=O)CN3)cc1 [Example 142, 4-[1-(2,6-Dichlorobenzyl)-2-oxo-1,2,3,4-tetrahydropyrido[2,3-b]pyrazin-7-yl]-N-(2-pyrrolidin-1-yl-ethyl)benzamide] | 1 to 10 | 0.1 to 1 | > 200 °C
12 | O=C1CNc2ncc(I)cc2N1Cc1cccnc1Cl [Example 299, 1-(2-Chloropyridin-3-ylmethyl)-7-iodo-3,4-dihydro-1H-pyrido[2,3-b]pyrazin-2-one] | > 100 | 1 to 10 | 249 °C
13 | CC1(C)Nc2ncc(-c3ccc(C(=O)N4CCC[C@H]4CN4CCCC4)cc3)cc2N(Cc2cc(F)ccc2F)C1=O [Example 94, 1-(2,5-Difluorobenzyl)-3,3-dimethyl-7-[4-((S)-2-[(pyrrolidin-1-yl)methyl]pyrrolidine-1-carbonyl)phenyl]-3,4-dihydro-1H-pyrido[2,3-b]pyrazin-2-one] | 10 to 100 | 1 to 10 | 171 to 172 °C
14 | O=C1CNc2ncc(I)cc2N1Cc1cc(C(F)(F)F)ccc1Cl [Example 116, 1-(2-Chloro-5-trifluoromethylbenzyl)-7-iodo-3,4-dihydro-1H-pyrido[2,3-b]pyrazin-2-one] | > 100 | 10 to 100 | 252 to 253 °C
15 | O=C(O)c1cnc2c(c1)N(Cc1cc(F)ccc1F)CCN2 [Example 78, 1-(2,5-Difluorobenzyl)-1,2,3,4-tetrahydropyrido[2,3-b]pyrazine-7-carboxylic acid] | > 100 | > 100 | 231 °C (dec.)
16 | O=C1CNc2ncc(I)cc2N1Cc1cc(F)ccc1C(F)(F)F [Example 133, 1-(5-Fluoro-2-trifluoromethylbenzyl)-7-iodo-3,4-dihydro-1H-pyrido[2,3-b]pyrazin-2-one] | > 100 | > 100 | 244 to 245 °C
17 | CC1(C)CN(Cc2cc(F)ccc2F)c2cc(-c3ccc(C(=O)N4CCC[C@H]4CN4CCCC4)cc3)cnc2N1 [Example 96, {4-[1-(2,5-Difluorobenzyl)-3,3-dimethyl-1,2,3,4-tetrahydropyrido[2,3-b]pyrazin-7-yl]phenyl}-((S)-2-((pyrrolidin-1-yl)methyl)pyrrolidin-1-yl)methanone] | 10 to 100 | 1 to 10 | 74 to 77 °C
18 | CN1CCN(C(=O)c2ccc(-c3cnc4c(c3)N(Cc3ccccc3)CCN4)cc2)CC1 [Example 37, [4-(1-Benzyl-1,2,3,4-tetrahydropyrido[2,3-b]pyrazin-7-yl)phenyl]-(4-methylpiperazin-1-yl)methanone] | 10 to 100 | 1 to 10 | 180 to 181 °C
19 | CCOC(=O)c1ccc(-c2cnc3c(c2)N(Cc2c(F)ccc(F)c2Cl)C(=O)CN3)cc1 [Example 5, 4-[1-(2-Chloro-3,6-difluorobenzyl)-2-oxo-1,2,3,4-tetrahydropyrido[2,3-b]pyrazin-7-yl]benzoic acid ethyl ester] | > 100 | 1 to 10 | 180 to 182 °C
20 | O=C(O)c1ccc(-c2cnc3c(c2)N(Cc2ccccc2)CCN3)cc1 [Example 36, 4-(1-Benzyl-1,2,3,4-tetrahydropyrido[2,3-b]pyrazin-7-yl)benzoic acid] | 1 to 10 | 0.1 to 1 | > 300 °C
21 | O=C1CCNc2nc(Br)ccc21 [Example 266, 7-bromo-2,3-dihydro-1H-[1,8]naphthyridin-4-one] | > 100 | > 100 | 196 to 197 °C
22 | O=C1CNc2ncc(I)cc2N1Cc1ccccc1OC(F)(F)F [Example 294, 7-Iodo-1-[2-(trifluoromethoxy)benzyl]-3,4-dihydro-1H-pyrido[2,3-b]pyrazin-2-one] | 10 to 100 | 10 to 100 | 235 °C
23 | O=C1CNc2ncc(-c3ccc(C(=O)N4CCC[C@H]4CN4CCCC4)cc3)cc2N1Cc1cc(F)c(F)cc1F [Example 83, 7-[4-((S)-2-[(pyrrolidin-1-yl)methyl]pyrrolidine-1-carbonyl)phenyl]-1-(2,4,5-trifluorobenzyl)-3,4-dihydro-1H-pyrido[2,3-b]pyrazin-2-one] | 10 to 100 | 1 to 10 | 117 to 118 °C
24 | NCC#Cc1cnc2c(c1)N(Cc1cc(Cl)ccc1Cl)CCN2 [Example 169, 3-[1-(2,5-Dichlorobenzyl)-1,2,3,4-tetrahydropyrido[2,3-b]pyrazin-7-yl]prop-2-ynylamine] | 10 to 100 | 0.1 to 1 | 183 °C
25 | Cc1noc(C)c1-c1cnc2c(c1)N(Cc1c(F)ccc(F)c1Cl)CCN2 [Example 103, 1-(2-Chloro-3,6-difluorobenzyl)-7-(3,5-dimethyl-isoxazol-4-yl)-1,2,3,4-tetrahydropyrido[2,3-b]pyrazine] | 10 to 100 | 0.1 to 1 | 215 to 216 °C
26 | O=C(c1ccc(-c2cnc3c(c2)N(Cc2ccccc2)CCN3)cc1)N1CCC(N2CCCC2)CC1 [Example 39, [4-(1-Benzyl-1,2,3,4-tetrahydropyrido[2,3-b]pyrazin-7-yl)phenyl]-(4-(pyrrolidin-1-yl)piperidin-1-yl)methanone] | 10 to 100 | 1 to 10 | 120 °C
27 | CC(c1c(F)ccc(F)c1Cl)N1CCNc2ncc(I)cc21 (stereo not drawn) [Example 176, 1-[1-(2-Chloro-3,6-difluorophenyl)ethyl]-7-iodo-1,2,3,4-tetrahydropyrido[2,3-b]pyrazine] | 10 to 100 | 1 to 10 | 166 °C
28 | O=C(c1ccccc1)N1CCNc2ncccc21 [Example 41, (3,4-Dihydro-2H-pyrido[2,3-b]pyrazin-1-yl)phenylmethanone] | > 100 | > 100 | 166 to 168 °C
29 | CCOC(=O)c1ccc(-c2cnc3c(c2)N(Cc2cc(F)ccc2F)C(=O)CN3)cc1 [Example 55, 4-[1-(2,5-Difluorobenzyl)-2-oxo-1,2,3,4-tetrahydropyrido[2,3-b]pyrazin-7-yl]benzoic acid ethyl ester] | > 100 | 10 to 100 | 201 to 203 °C
30 | O=C(c1ccc(-c2cnc3c(c2)N(Cc2cc(Cl)ccc2C(F)(F)F)CCN3)cc1)N1CCCCC1 [Example 204] | 10 to 100 | 0.1 to 1 | 216 °C
